Results published in patent publication US10683272B2 (THE JOHNS HOPKINS UNIVERSITY, priority 2014, dated 2020).

Test: radiation dosimetry (OLINDA/EXM) from baboon PET data
Format: Reference Adult Male based on baboon PET imaging data
Experimental: For each time-point, the activity concentration (in Bq/cm^3) was measured in each of the 14 delineated organs and multiplied by the organ volume to obtain the total activity per time point per organ. The measured values were then decay-corrected and divided by the baboon organ mass, determined by the CT density and volume from the drawn contours, and the injected radioactivity to obtain the fraction of initial radioactivity per gram (FIA/g) for each time point and each organ. The baboon FIA/g values were then converted to human FIA (per organ) using the following equation (Schwartz et al., 2011; Woodard et al., 1975): […]
That approach assumes that the concentration of activity in a particular tissue relative to the overall concentration in the whole body is preserved across species (i.e., organ concentration/total body concentration is the same for baboon and man). The resulting human FIA values were plotted as a function of time (nine data points) for each organ and fit to a bi-exponential expression: FIA(t)=A1.e^−(λ1^bio^.t)+A2.e^−(Δ2^bio^.t) (2)
where A1, A2, λ1bio, and λ2bio are fit parameters. The sum of A1 and A2 give the back-extrapolated, time-zero fraction of administered radioactivity in each organ, and λ1bio and λ2bio are the biological clearance constants. The equation for the time-integrated activity coefficient [TIAC, previously known as residence time (Bolch et al., 2009) for each source organ was obtained, as its name implies, by integrating equation (2) and introducing a physical decay term, λφ, which depends on the isotope used:
TIACs were calculated for ^90Y, ^177Lu and ^86Y, with their corresponding physical decay constants: ^90Y λφ=0.01083 h^−1 (T1/2=64.0 h); ^177Lu λφ=0.00429 h^−1 (T1/2=161.52 h) and ^86Y λφ=0.04702 h^−1 (T1/2=14.74 h), respectively voiding. Radiation absorbed doses were obtained by converting time-integrated activity to absorbed doses according to the MIRD absorbed fraction methodology (Bolch et al., 2009) through the use of the OLINDA/EXM software (Stabin et al., 2005). The TIAC for the urinary bladder was obtained using the MIRD bladder model implemented in OLINDA/EXM. Input to that model requires the whole-body TIAC, which was obtained from the equation FIA(t)=A. e^(−λ^bio^t) fitted to whole-body retention kinetics. The voiding interval was set to 2 h. The TIACs were then input into OLINDA/EXM (Stabin et al., 2005), and the resulting absorbed dose per unit of radioactivity obtained for the 14 organs. The specific kidney model in OLINDA/EXM was used to obtain the renal cortex dose values. The absorbed dose from organs external to the kidney was added to the renal cortex dose calculated from the internal kidney model. The specific prostate model was used for prostate self-dose, and external dose to the bladder was added as a surrogate for the whole body to prostate dose. The self-dose component of the absorbed dose per unit activity for the salivary glands was obtained using 3D-RD Monte Carlo (EGSnrc) and a human CT with delineated salivary glands. The cross-dose component was taken by assuming the same cross-dose for a like-sized organ (pancreas).
Measured activity concentration (in Bq/cm^3) values per time point per organ were decay-corrected and divided by the baboon organ mass, determined by the CT density and volume from the drawn contours, and the injected radioactivity to obtain the fraction of initial radioactivity per gram (FIA/g) for each time point and each organ. The baboon FIA/g values were then converted to human FIA (per organ) using the related equation (Olszewski et al., 2004; Schwartz et al., 2011). The resulting human FIA values were then plotted as a function of time and fit to a bi-exponential expression and the value for the time-integrated activity coefficient (TIAC, previously known as residence time (Woodard et al., 1975)) for each source organ was calculated. […]

## O=C([O-])CN1CCN(CC(=O)[O-])CCN(CC(=O)[O-])C(Cc2ccc(NC(=S)NCCCCNC(=O)CCCCCCC(=O)NCCCC[C@H](NC(=O)N[C@@H](CCC(=O)O)C(=O)O)C(=O)O)cc2)CN(CC(=O)[O-])CC1.[86Y+3] (some centres unmarked) [^86Y-6]
^86Y
  Organ absorbed dose, Adrenals: 8.62E−02 mGy/MBq
  Organ absorbed dose, Brain: 2.30E−02 mGy/MBq
  Organ absorbed dose, Breasts: 4.52E−02 mGy/MBq
  Organ absorbed dose, Gallbladder wall: 7.88E−02 mGy/MBq
  Organ absorbed dose, Heart wall: 6.70E−02 mGy/MBq
  Organ absorbed dose, Kidneys: 4.03E−01 mGy/MBq
  Organ absorbed dose, LLI wall: 9.61E−02 mGy/MBq
  Organ absorbed dose, Liver: 7.19E−02 mGy/MBq
  Organ absorbed dose, Lungs: 5.98E−02 mGy/MBq
  Organ absorbed dose, Muscle: 5.47E−02 mGy/MBq
  Organ absorbed dose, Osteogenic cells: 7.19E−02 mGy/MBq
  Organ absorbed dose, Ovaries: 9.48E−02 mGy/MBq
  Organ absorbed dose, Pancreas: 8.09E−02 mGy/MBq
  Organ absorbed dose, Prostate: 7.64E−02 mGy/MBq
  Organ absorbed dose, Red marrow: 6.29E−02 mGy/MBq
  Organ absorbed dose, Renal cortex: 4.24E−01 mGy/MBq
  Organ absorbed dose, Salivary glands: 1.78E−01 mGy/MBq
  Organ absorbed dose, Skin: 3.97E−02 mGy/MBq
  Organ absorbed dose, Small intestine: 8.72E−02 mGy/MBq
  Organ absorbed dose, Spleen: 7.23E−02 mGy/MBq
  Organ absorbed dose, Stomach wall: 6.69E−02 mGy/MBq
  Organ absorbed dose, Testes: 7.23E−02 mGy/MBq
  Organ absorbed dose, Thymus: 5.38E−02 mGy/MBq
  Organ absorbed dose, Thyroid: 5.07E−02 mGy/MBq
  Organ absorbed dose, ULI wall: 8.56E−02 mGy/MBq
  Organ absorbed dose, Urinary bladder wall: 6.17E−01 mGy/MBq
  Organ absorbed dose, Uterus: 1.34E−01 mGy/MBq
  Time-integrated activity coefficient (residence time), Brain: 1.41E−02 MBq-h/MBq
  Time-integrated activity coefficient (residence time), Heart contents: 2.55E−02 MBq-h/MBq
  Time-integrated activity coefficient (residence time), Kidneys: 4.08E−01 MBq-h/MBq
  Time-integrated activity coefficient (residence time), Liver: 1.37E−01 MBq-h/MBq
  Time-integrated activity coefficient (residence time), Lungs: 9.70E−02 MBq-h/MBq
  Time-integrated activity coefficient (residence time), Muscle: 4.76E−01 MBq-h/MBq
  Time-integrated activity coefficient (residence time), Pancreas: 6.37E−03 MBq-h/MBq
  Time-integrated activity coefficient (residence time), Prostate: 1.15E−03 MBq-h/MBq
  Time-integrated activity coefficient (residence time), Remainder: 3.64 MBq-h/MBq
  Time-integrated activity coefficient (residence time), Renal cortex: 3.23E−01 MBq-h/MBq
  Time-integrated activity coefficient (residence time), Salivary Glands: 4.45E−02 MBq-h/MBq
  Time-integrated activity coefficient (residence time), Small intestine: 9.31E−03 MBq-h/MBq
  Time-integrated activity coefficient (residence time), Spleen: 7.41E−03 MBq-h/MBq
  Time-integrated activity coefficient (residence time), Stomach: 6.44E−03 MBq-h/MBq
  Time-integrated activity coefficient (residence time), ULI: 1.99E−02 MBq-h/MBq
  Time-integrated activity coefficient (residence time), Ur. bladder contents: 7.41E−01 MBq-h/MBq
^86Y, calculated in OLINDA/EXM
  effective dose: 0.099 mSv/MBq
^90Y
  Organ absorbed dose, Adrenals: 3.46E−02 mGy/MBq
  Organ absorbed dose, Brain: 6.79E−03 mGy/MBq
  Organ absorbed dose, Breasts: 3.46E−02 mGy/MBq
  Organ absorbed dose, Gallbladder wall: 3.46E−02 mGy/MBq
  Organ absorbed dose, Heart wall: 5.33E−02 mGy/MBq
  Organ absorbed dose, Kidneys: 1.13 mGy/MBq
  Organ absorbed dose, LLI wall: 3.46E−02 mGy/MBq
  Organ absorbed dose, Liver: 4.99E−02 mGy/MBq
  Organ absorbed dose, Lungs: 6.57E−02 mGy/MBq
  Organ absorbed dose, Muscle: 1.32E−02 mGy/MBq
  Organ absorbed dose, Osteogenic cells: 5.26E−02 mGy/MBq
  Organ absorbed dose, Ovaries: 3.46E−02 mGy/MBq
  Organ absorbed dose, Pancreas: 4.64E−02 mGy/MBq
  Organ absorbed dose, Prostate: 4.78E−02 mGy/MBq
  Organ absorbed dose, Red marrow: 2.41E−02 mGy/MBq
  Organ absorbed dose, Renal cortex: 1.19 mGy/MBq
  Organ absorbed dose, Salivary glands: 2.79E−01 mGy/MBq
  Organ absorbed dose, Skin: 3.46E−02 mGy/MBq
  Organ absorbed dose, Small intestine: 4.29E−02 mGy/MBq
  Organ absorbed dose, Spleen: 1.64E−02 mGy/MBq
  Organ absorbed dose, Stomach wall: 3.46E−02 mGy/MBq
